Common to all, as to format: in vivo
The nature of test [1]: Brain weight coefficient (BWC) in rat models with Alzheimer's disease. The conditions noted are these: statistically insignificant; donepezil 1 mg/kg, tetrapeptide 0.1 mg/kg. As for the experimental part:
(§1) The drugs were administered daily, once a day.
The OF and EE tests were conducted on the 1st day, PST—on the 2nd day, CPAR—on the 1st and 10th day post treatment with the preparations. […] The antiamnesic action (AA) in the CPAR test was calculated using Butler's formula [K. S. Radionova. […] After that, the animals were removed from the experiment by administering a narcotic, followed by decapitation. The brain was extracted and weighed, and the brain weight coefficient (BWC) was calculated. Immediately after extraction, the brain was frozen in liquid nitrogen and used in subsequent biochemical and histochemical studies. Glucose levels in whole arterial (common carotid artery) and venous (venous cerebral sinus) blood were determined by the glucose oxidase test, the difference in the arterial-venous glucose content was calculated (glucose consumption marker). The levels of average weight molecules—the toxic products of cell biodegradation damaged during the disease (nucleoside derivatives, peptoids, glucuronic acid salts, etc.) in the blood serum (AWM) were calculated [A. N. Kovalevsky. Notes on the screening method of determination average weight molecules/A. N. Kovalevsky, O. Ye. Nifantiev//Lab. Science. […] 35-39].

Test [2] deals with acetylcholine. The test is described as follows: Acetylcholine content in the brain homogenate of rat models with Alzheimer's disease. The conditions noted are these: compared to the control, pathology and donepezil groups, p<0.05. The method, then: as §1
(§2) 1966, t. […] M. I. Prokhorova, Leningrad, pub. House LSU, 1982.—pp. 256-258].

The subject of test [3] is serotonin. The test is described as follows: Serotonin level in the brain of rat models with Alzheimer's disease. As to conditions: donepezil 1 mg/kg, tetrapeptide 0.1 mg/kg. As for the experimental part:
as §1
M. I. Prokhorova, Leningrad, pub.

The subject of test [4] is ATP. The test is described as follows: Brain ATP level in rat models with Alzheimer's disease. As to conditions: tetrapeptide 0.1 mg/kg; as a trend. The method, then:
as §1, §2

The test system of test [5] is reduced glutathione. The experiment in a line: Reduced glutathione level in the brain of rat models with Alzheimer's disease. The conditions noted are these: tetrapeptide 0.1 mg/kg. The method, then:
as §1
(§3) Standard biochemical methods were used to determine the content and activity of antioxidant defense enzymes and products of lipid peroxidation: malonic dialdehyde (MDA) [Modern Biochemistry Methods/[edited by V. N. Orekhovich]; M. Medicine, 1977, 392 pp]; superoxide dismutase (SOD) [O. P. Makarevich Activity of superoxide dismutase in blood in the acute period of various diseases/O. P. Makarevich, P. P. Golikov//Lab. Science, 1983, No 6, pp 24-27]; catalase [Methods for the Determination of Catalase Activity/M. A. Korolyuk, L. I. Ivanova, I. G. Mayorova, et al//Lab. Science, 1988, No 1, pp 16-19]; and reduced glutathione [T. A. Kochetov A Practical Guide to Enzymology. M. Nauka, 1980, 280 pp].

The subject of test [6] is catalase. The experiment in a line: Catalase activity in the brain of rat models with Alzheimer's disease. The conditions noted are these: tetrapeptide 0.1 mg/kg; statistically significant. The method, then: as §1, §3
Test [7] has as its system rat models with AD. The experiment in a line: Open field (OF) test, scopolamine-induced Alzheimer's disease model. The conditions noted are these: scopolamine AD rats; 0.1 mg/kg i.n. 10 days; p<0.05. As for the experimental part: White random-bred adult male rats weighing 200-240 g were used. Groups of 7 animals per group were formed. 1st group—control, 2nd—pathology, 3rd—comparator drug, 4th-6th—neuropeptides.
as §1
After a course of treatment with the preparations, the CNS function of the animals was evaluated according to the open field (OF), extrapolation escape (EE), and conditioning passive avoidance reflex (CPAR) tests [Guidelines for conducting nonclinical studies of pharmaceuticals/edited by A. N. Mironov, MD, PhD, Part 1, M.: Grief and K, 2012-944 p.; Methods of behavior analysis in neuroscience—London, New York, Washington: CRCPress, 2001.-329 p.], and also The Porsolt swim test (PST) [Methods of behavior analysis in neuroscience—London, New York, Washington: CRCPress, 2001.-329 p; Porsolt R. D. Depression: A new animal model sensitive to antidepressant treatments/R. D. Porsolt, M. LePichon, M. Oalfre//Nature.—1977.—Vol. 266.—P. 730-732.].
The OF and EE tests were conducted on the 1st day, PST—on the 2nd day, CPAR—on the 1st and 10th day post treatment with the preparations. […] The antiamnesic action (AA) in the CPAR test was calculated using Butler's formula [K. S. Radionova. […] The brain was extracted and weighed, and the brain weight coefficient (BWC) was calculated. […]

Test [8] relates to superoxide dismutase. The experiment in a line: Superoxide dismutase activity in the brain of rat models with Alzheimer's disease. As to conditions: tetrapeptide 0.1 mg/kg. As for the experimental part: as §1, §3
The test system of test [9] is malonic aldehyde. The experiment in a line: Malonic aldehyde content in the brain of rat models with Alzheimer's disease. As to conditions: tetrapeptide 0.1 mg/kg.
A short description of test [10]: Arteriovenous glucose difference in rat models with Alzheimer's disease. As to conditions: tetrapeptide 0.1 mg/kg; as a trend. The method, then: as §1
The OF and EE tests were conducted on the 1st day, PST—on the 2nd day, CPAR—on the 1st and 10th day post treatment with the preparations. The CPAR proficiency criterium—remaining in the light area of the CPAR device during at least 180 sec. The antiamnesic action (AA) in the CPAR test was calculated using Butler's formula [K. S. Radionova. Original nootropic preparation Noopept ameliorates memory loss caused by the M- and N-choline receptor blockade in rats/K. S. Radionova, A. P. Bel'nik, R. U. Ostrovskaya//Bul experim. Biology and Medicine.—2008.—T.146, No 1.—pp 65-68]. After that, the animals were removed from the experiment by administering a narcotic, followed by decapitation. The brain was extracted and weighed, and the brain weight coefficient (BWC) was calculated. […] Glucose levels in whole arterial (common carotid artery) and venous (venous cerebral sinus) blood were determined by the glucose oxidase test, the difference in the arterial-venous glucose content was calculated (glucose consumption marker). The levels of average weight molecules—the toxic products of cell biodegradation damaged during the disease (nucleoside derivatives, peptoids, glucuronic acid salts, etc.) in the blood serum (AWM) were calculated [A. N. Kovalevsky. […]

Consider one substance from patent US10844091B2 (priority 2017, dated 2020).

Non-standard residues stand in square brackets, D forms with d.

On to “acetyl-D-Lys-Lys-Arg-Arg-amide (Ac-[dK]KRR-NH2; SMILES CC(=O)N[C@H](CCCCN)C(=O)N[C@@H](CCCCN)C(=O)N[C@@H](CCCNC(=N)N)C(=O)N[C@@H](CCCNC(=N)N)C(N)=O) [tetrapeptide (LYS), peptide acetyl-X-ARG-ARG-amide, X = D- and L-amino acid residues of lysine]”, for which, in [1], the “reduction of the brain weight coefficient (BWC)” value is 14.3%. Also, the “content of acetylcholinesterase in the brain (FIG. 11)” value in test [2] was “statistically significantly reduces”. Further, the “reduction of the serotonin level in the brain” value in test [3] is on record as 23.8%. For the same substance, the “brain ATP level” value in test [4] is reported as “increased ATP level”. The “increase of the level of reduced glutathione in the brain” value in test [5] is recorded as 36.6%. Further, in test [6], the “reduction of the elevated activity of catalase” value was found to be 1.1 times. In addition, the “reduction of the number of grooming acts in the OF” value in test [7] was found to be 44.7%. In test [8], the “increase of SOD activity compared to the pathology group” value stood at 22%. The “reduction of malonic aldehyde content in the brain relative to the pathology group” value in test [9] amounted to 39.8%. Besides, the “glucose utilization in the brain” value in [10] is reported as “improved glucose utilization”.
